{"source": "ChEMBL document CHEMBL2401637", "about": "“The identification of novel p38α isoform selective kinase inhibitors having an unprecedented p38α binding mode” (Bioorg Med Chem Lett, 2013)", "test": "Aqueous solubility of the compound at pH 6.5", "format": "physicochemical", "data": [{"compound": "Cc1ccc(C(=O)NC2CC2)cc1NC(=O)c1ccc(-c2ccc(Cl)cc2)s1", "values": [{"measurement": "solubility", "value": "< 1", "unit": "µg/mL"}]}, {"compound": "Cc1ccc(C(=O)NC2CC2)cc1NC(=O)c1ccc(-c2cccc(Cl)c2)s1", "values": [{"measurement": "solubility", "value": "< 1", "unit": "µg/mL"}]}, {"compound": "Cc1ccc(C(=O)NC2CC2)cc1NC(=O)c1ccc(-c2ccccc2Cl)s1", "values": [{"measurement": "solubility", "value": "< 1", "unit": "µg/mL"}]}]}
